Source: the NIST ThermoML archive (doi:10.1021/je301284x)

Tests used:
[1] = for mass density / electrical conductivity / viscosity: 101.33 kPa, Liquid; for mass density: Vibrating tube method; for viscosity: Concentric cylinders viscometry; for Normal melting temperature: Crystal; for Normal melting temperature / Glass transition temperature: DTA
[2] = Molar enthalpy of transition or fusion; details: Crystal; DSC

CCC[NH+](CC)CC.O=S(=O)([O-])C(F)(F)F [N,N-diethylpropan-1-aminium trifluoromethanesulfonate]
[1]
Details | electrical conductivity [S/m] | mass density [kg/m3] | viscosity [mPa·s]
288.15 K | – | 1237 | –
293.15 K | – | 1229 | –
298.15 K | – | 1222 | –
303.15 K | 0.384 | 1215 | 54.3
308.15 K | – | 1208 | –
313.15 K | – | 1201 | –
323.15 K | 0.71 | – | 26.8
343.15 K | 1.13 | – | 15.3
363.15 K | 1.71 | – | 9.76
383.15 K | 2.22 | – | 6.71
403.15 K | 2.88 | – | 4.87
423.15 K | 3.57 | – | 3.73
443.15 K | 4.31 | – | –

Details | Molar enthalpy of transition or fusion [kJ/mol] | Normal melting temperature [°C]
[1] | – | -14.00
[2] | 21 | –

C=CC[NH+](CC)CC.O=S(=O)([O-])C(F)(F)F [N,N-diethylprop-2-en-1-aminium trifluoromethanesulfonate]
[1]
Details | electrical conductivity [S/m] | mass density [kg/m3] | viscosity [mPa·s]
288.15 K | – | 1270 | –
293.15 K | – | 1263 | –
298.15 K | – | 1255 | –
303.15 K | 0.419 | 1247 | 51
308.15 K | – | 1240 | –
313.15 K | – | 1232 | –
323.15 K | 0.785 | – | 25.5
343.15 K | 1.26 | – | 14.9
363.15 K | 1.81 | – | 9.64
383.15 K | 2.43 | – | 6.7
403.15 K | 3.17 | – | 4.94
423.15 K | 3.91 | – | 3.87
443.15 K | 4.71 | – | –

Details | Glass transition temperature [°C] | Molar enthalpy of transition or fusion [kJ/mol] | Normal melting temperature [°C]
[1] | -99.00 | – | -14.00
[2] | – | 21 | –

CCC[NH+](C)C.O=S(=O)([O-])C(F)(F)F [N,N-dimethylpropan-1-aminium trifluoromethanesulfonate]
[1]
Details | electrical conductivity [S/m] | mass density [kg/m3] | viscosity [mPa·s]
288.15 K | – | 1291 | –
293.15 K | – | 1284 | –
298.15 K | – | 1276 | –
303.15 K | 0.901 | 1269 | 33.2
308.15 K | – | 1262 | –
313.15 K | – | 1254 | –
323.15 K | 1.57 | – | 18
343.15 K | 2.39 | – | 11
363.15 K | 3.25 | – | 7.42
383.15 K | 4.29 | – | 5.32
403.15 K | 5.3 | – | 4.04
423.15 K | 6.4 | – | 3.19
443.15 K | 7.68 | – | –

Details | Molar enthalpy of transition or fusion [kJ/mol] | Normal melting temperature [°C]
[1] | – | 20.00
[2] | 20 | –

CCC[NH+](C)CCC.O=S(=O)([O-])C(F)(F)F [N-methyl-N-propylpropan-1-aminium trifluoromethanesulfonate]
[1]
Details | electrical conductivity [S/m] | mass density [kg/m3] | viscosity [mPa·s]
293.15 K | – | 1218 | –
298.15 K | – | 1211 | –
303.15 K | 0.415 | 1203 | 48.7
308.15 K | – | 1196 | –
313.15 K | – | 1189 | –
323.15 K | 0.772 | – | 23.9
343.15 K | 1.23 | – | 13.6
363.15 K | 1.81 | – | 8.63
383.15 K | 2.48 | – | 5.96
403.15 K | 3.18 | – | 4.4
423.15 K | 4.04 | – | 3.44
443.15 K | 4.88 | – | –

Details | Molar enthalpy of transition or fusion [kJ/mol] | Normal melting temperature [°C]
[1] | – | 17.00
[2] | 14 | –

C=CC[NH+](C)CC=C.O=S(=O)([O-])C(F)(F)F
[1]
Details | electrical conductivity [S/m] | mass density [kg/m3] | viscosity [mPa·s]
288.15 K | – | 1268 | –
293.15 K | – | 1261 | –
298.15 K | – | 1253 | –
303.15 K | 0.469 | 1246 | 38.5
308.15 K | – | 1239 | –
313.15 K | – | 1231 | –
323.15 K | 0.893 | – | 19.7
343.15 K | 1.43 | – | 11.6
363.15 K | 2.06 | – | 7.61
383.15 K | 2.74 | – | 5.39
403.15 K | 3.54 | – | –
423.15 K | 4.39 | – | –
443.15 K | 5.21 | – | –

Details | Glass transition temperature [°C] | Molar enthalpy of transition or fusion [kJ/mol] | Normal melting temperature [°C]
[1] | -88.00 | – | -19.00
[2] | – | 11 | –

C=CC[NH+](C)C.O=S(=O)([O-])C(F)(F)F [N,N-dimethylprop-2-en-1-aminium trifluoromethanesulfonate]
[1]
Details | electrical conductivity [S/m] | mass density [kg/m3] | viscosity [mPa·s]
288.15 K | – | 1318 | –
293.15 K | – | 1311 | –
298.15 K | – | 1303 | –
303.15 K | 0.968 | 1295 | 28.8
308.15 K | – | 1288 | –
313.15 K | – | 1280 | –
323.15 K | 1.74 | – | 16.4
343.15 K | 2.65 | – | 10.4
363.15 K | 3.73 | – | 7.11
383.15 K | 4.92 | – | 5.18
403.15 K | 6.19 | – | 3.95
423.15 K | 7.48 | – | 3.17
443.15 K | 8.82 | – | –

Details | Molar enthalpy of transition or fusion [kJ/mol] | Normal melting temperature [°C]
[1] | – | 16.00
[2] | 21 | –

CC[NH+](C)CC.O=S(=O)([O-])C(F)(F)F [diethylmethylammonium trifluoromethanesulfonate]
[1]
Details | electrical conductivity [S/m] | mass density [kg/m3] | viscosity [mPa·s]
288.15 K | – | 1299 | –
293.15 K | – | 1292 | –
298.15 K | – | 1284 | –
303.15 K | 0.833 | 1277 | 36.9
308.15 K | – | 1270 | –
313.15 K | – | 1262 | –
323.15 K | 1.45 | – | 19.4
343.15 K | 2.15 | – | 12.1
363.15 K | 3.15 | – | 8.13
383.15 K | 3.91 | – | 5.82
403.15 K | 4.73 | – | 4.41
423.15 K | 5.46 | – | 3.48
443.15 K | 5.97 | – | –

Details | Molar enthalpy of transition or fusion [kJ/mol] | Normal melting temperature [°C]
[1] | – | -6.00
[2] | 16 | –
